Reference: patent US8865741B2, “Aminoindane compounds and use thereof in treating pain” (Asana Biosciences, LLC, priority 2011, dated 2014)

How the values were obtained:
[1] = test system: sodium channel in hTRPV1-N1E115 cells; assay: FLIPR membrane potential assay of sodium channel response in hTRPV1-N1E115 cells, with (47° C.) or without (25° C.) heat activation of hTRPV1; assay type: cell-based; conditions: for hTRPV1-N1E Nav 0.1 mM (% inhibition) 25° C. / hTRPV1-N1E Nav 1 mM (% inhibition) 25° C.: 25° C. (no heat activation of hTRPV1); for hTRPV1-N1E Nav 0.1 mM (% inhibition) 47° C. / hTRPV1-N1E Nav 1 mM (% inhibition) 47° C.: 47° C. (heat activation of hTRPV1); for IC50 / hTRPV1-N1E Nav (% inhibition) 47° C., tested at 0.5 mM: 47° C.; for IC50: class symbols, read-out: hTRPV1-N1E IC50 (μM) 47° C.; for hTRPV1-N1E Nav (% inhibition) 25° C., tested at 0.5 mM / hTRPV1-N1E Nav (% inhibition) 47° C., tested at 0.5 mM: 0.5 mM (stated in cell, column head 0.1 mM)
Description: In one embodiment, a modified FLIPR® (Fluorometric Imaging Plate Reader) based assay system was developed which is capable of discriminating between non-specific versus hTRPV1-mediated entry of test compounds. Advantageously, the assay system utilizes heat activated opening of hTRPV1 channels followed by an assessment of internal sodium channel block. The assay allows a permanently charged compound to selectively enter through opened hTRPV1 channels and that compound's potency in inhibiting sodium channels from the cytoplasm side of the same cell can be assessed and quantified.
The assay is readily performed in multi-well assay plates into which cells in growth media are added and incubated under conditions which permit the formation of a confluent monolayer over a period of hours prior to the start of the assay. Conventional culture media and conditions may be utilized. Duplicate cell assay plates are prepared for each experiment.
The spent media from the cell seeded plates is removed on the day of the assay and replaced with Membrane potential Dye-Blue (Molecular Devices). The dye was prepared in assay buffer following manufacturer's instructions. The dye-loaded plate is incubated at room temperature (about 25° C.) for about 30 minutes in order to pre-load the cells with dye. Optionally, the cells may be loaded with the dye simultaneously with adding the test compounds.
The test compounds are diluted in the Assay Buffer and added to each well of a specific 384-well ‘compound plate’, which serves as a source plate for compound addition using the FLIPR® platform. The concentration of compounds in the compound-plate was adjusted to achieve the desired final concentration when added to the cells in the ‘cell-plate’. After completion of the dye incubation period, the dye loaded cell-plates and the compound source plates are inserted into the FLIPR® Tetra™ device with a 384 FLIPR® tip box (Molecular Devices, Inc.) according to manufacturer's instructions. The compounds are robotically added to the dye loaded cell-plates using software integral to the FLIPR® Tetra™ instrument.
Immediately following compound addition, hTRPV1 is activated, in one of the duplicate cell plates, by heating. Specifically, entire multi-well plate containing the compound-cells mixture is incubated at 47° C. for 10 minutes, after which they are returned to room temperature (about 25° C.) for a further 30 minutes. Heat activation of hTRPV1 was omitted from the replicate cell plate which was simply maintained at room temperature for the entire 40 minutes.
A membrane potential response is elicited in the dye- and compound-loaded cells by the addition of veratridine which is a known sodium channel ‘agonist’. As illustrated in an example herein, an agonist plate containing veratridine (Sigma) is prepared in advance and is inserted into suitable devices such as, e.g., the FLIPR® TETRA® device for a “2nd addition” as instructed by the manufacturer. The concentration of veratridine in the ‘agonist plate’ was adjusted to achieve a final concentration of 100 μM when added to the cells in the cell-plate. Final concentrations of veratridine greater or lesser than 100 μM may also be used but the signal measured by the FLIPR®^Tetra™ device or another suitable device may vary accordingly.
The exposure of the cells in the cell-plate to veratridine induces sodium channels in the cells to open and the resulting ion flux produces a membrane potential depolarization that is detected as a fluorescence signal by the FLIPR® ^Tetra™ Device. The activity of test compounds is determined by their ability to attenuate the veratridine-induced fluorescence signal, the most promising compounds are those that show an enhanced activity in the heat-activated cell plate over the non-heat-activated cell plate. […]

[2] = test system: Male Sprague Dawley (SD) rats; assay: In vivo assay of mechanical nociception (rat pinch model, perisciatic injection); conditions: for Average Time of Analgesia: perisciatic; for duration of anti-nociception effect: 100 μL injection volume, 0.5% compound with 2% lidocaine (Table 8)
[3] = target: T1, human Nav1.5 sodium channel (Homo sapiens, UniProt Q14524); assay: Inhibition of sodium channel response in hNav1.5-HEK293 cells (FLIPR, veratridine); assay type: cell-based; conditions: for IC50: average, read-out: HEK Nav 1.5 IC50 (μM) (AVG); for inhibition at 10 min, 0.5 mM / inhibition at 10 min, 1.5 mM: human, HEK-293 cells expressing human Nav1.5 (hNav1.5-HEK-293), pH 7.4; for inhibition at 10 min, 0.5 mM: read-out: HEK Nav 1.5 % inh. @ 0.5 mM; for inhibition at 10 min, 1.5 mM: read-out: HEK Nav 1.5 % inh. @ 1.5 mM
T1 construct: host or cells: HEK-293
Experimental: C. Method for Assessing the Extent of Inhibition of Sodium Channel Response with Compounds in hNav1.5-HEK293 Cells.
The following assay was used to assess the tendency of the test compounds to block the dominant cardiac sodium channel isoform. Nav1.5 sodium channels are known to be permeable to quaternary sodium channel blockers such as QX-314 and, thus, the assay was performed in the absence of a chemical TRPV1 agonist.
The hNav1.5-HEK-293 cells (CreaCell, France, a human embryonic kidney cell line expressing the human Nav1.5 sodium channel) were cultured in Growth medium (containing 1×DMEM (Gibco)+10% FBS (PAA Gold)+2% Glutamine 100 mM (Gibco)+1% penicillin 10,000 U/mL streptomycin 10,000 μg/mL (Invitrogen)+1.2 mg/mL Geneticin G418 (Invitrogen)) in […] cell bind flasks (Corning). The following steps were followed exactly as mentioned. The spent medium was discarded and the cells rinsed once with PBS-1×. Accutase® (1-2 mL; PAA) solution was added. The plate was placed on a 37° C. warming incubator 3-5 minutes. As soon as cells are detached, 37° C. complete medium (9 mL) was added. The cell suspension was drawn into a sterile pipette and cells homogenized gently to dissociate cell aggregates. The cells were counted using a hemocytometer with Blue Trypan and then centrifuged 5 minutes at 400 g. The cells can be amplified or maintained by seeding […] in a T75 flask (final volume: 15 mL). 8000 cells in 50 μL Growth medium was added to each well of 384-well, clear bottomed, sterile poly-D-lysine coated plates with lid (Greiner-bio one) inside the laminar air-flow. The plates were incubated at 37° C. and 5% CO2 in a CO2 incubator (Thermo) for 48 hours.
On the day of the assay, cells were washed with Assay buffer, which was prepared using the components and amounts in Table 4. The pH was adjusted to 7.4 with NaOH, volume made up to 500 mL with Milli-Q® water.
Assay Buffer was added to the cells and incubated at rt (25° C.) for 10 minutes. The compounds were diluted in assay buffer. The compounds were added and incubated at rt (25° C.) for 10 minutes. Red FMP Dye (MDC) was added to the cells and the plate was incubated at rt (25° C.) for 30 minutes. Veratridine stock (20 mM; Sigma) was prepared in DMSO; veratridine (final concentration of 30 μM) in assay buffer was added to each well of the cell seeded plates in the FLIPR® system and read taken for 10 minutes. Table 5 provides data illustrating the sodium channel activity of the test compounds in response to the presence or absence of heat stimulation in cells expressing hTRPV1. The compounds were tested for differential activity at 25° C. and 47° C. and at two test concentrations. Compounds showing the most promising profiles were further evaluated for IC50 in the 47° C. assay, examples are shown in Table 5.

[4] = test compound 0.5%, lidocaine 2%, total injection 100 μL

T1 sequence (Q14524 whole entry): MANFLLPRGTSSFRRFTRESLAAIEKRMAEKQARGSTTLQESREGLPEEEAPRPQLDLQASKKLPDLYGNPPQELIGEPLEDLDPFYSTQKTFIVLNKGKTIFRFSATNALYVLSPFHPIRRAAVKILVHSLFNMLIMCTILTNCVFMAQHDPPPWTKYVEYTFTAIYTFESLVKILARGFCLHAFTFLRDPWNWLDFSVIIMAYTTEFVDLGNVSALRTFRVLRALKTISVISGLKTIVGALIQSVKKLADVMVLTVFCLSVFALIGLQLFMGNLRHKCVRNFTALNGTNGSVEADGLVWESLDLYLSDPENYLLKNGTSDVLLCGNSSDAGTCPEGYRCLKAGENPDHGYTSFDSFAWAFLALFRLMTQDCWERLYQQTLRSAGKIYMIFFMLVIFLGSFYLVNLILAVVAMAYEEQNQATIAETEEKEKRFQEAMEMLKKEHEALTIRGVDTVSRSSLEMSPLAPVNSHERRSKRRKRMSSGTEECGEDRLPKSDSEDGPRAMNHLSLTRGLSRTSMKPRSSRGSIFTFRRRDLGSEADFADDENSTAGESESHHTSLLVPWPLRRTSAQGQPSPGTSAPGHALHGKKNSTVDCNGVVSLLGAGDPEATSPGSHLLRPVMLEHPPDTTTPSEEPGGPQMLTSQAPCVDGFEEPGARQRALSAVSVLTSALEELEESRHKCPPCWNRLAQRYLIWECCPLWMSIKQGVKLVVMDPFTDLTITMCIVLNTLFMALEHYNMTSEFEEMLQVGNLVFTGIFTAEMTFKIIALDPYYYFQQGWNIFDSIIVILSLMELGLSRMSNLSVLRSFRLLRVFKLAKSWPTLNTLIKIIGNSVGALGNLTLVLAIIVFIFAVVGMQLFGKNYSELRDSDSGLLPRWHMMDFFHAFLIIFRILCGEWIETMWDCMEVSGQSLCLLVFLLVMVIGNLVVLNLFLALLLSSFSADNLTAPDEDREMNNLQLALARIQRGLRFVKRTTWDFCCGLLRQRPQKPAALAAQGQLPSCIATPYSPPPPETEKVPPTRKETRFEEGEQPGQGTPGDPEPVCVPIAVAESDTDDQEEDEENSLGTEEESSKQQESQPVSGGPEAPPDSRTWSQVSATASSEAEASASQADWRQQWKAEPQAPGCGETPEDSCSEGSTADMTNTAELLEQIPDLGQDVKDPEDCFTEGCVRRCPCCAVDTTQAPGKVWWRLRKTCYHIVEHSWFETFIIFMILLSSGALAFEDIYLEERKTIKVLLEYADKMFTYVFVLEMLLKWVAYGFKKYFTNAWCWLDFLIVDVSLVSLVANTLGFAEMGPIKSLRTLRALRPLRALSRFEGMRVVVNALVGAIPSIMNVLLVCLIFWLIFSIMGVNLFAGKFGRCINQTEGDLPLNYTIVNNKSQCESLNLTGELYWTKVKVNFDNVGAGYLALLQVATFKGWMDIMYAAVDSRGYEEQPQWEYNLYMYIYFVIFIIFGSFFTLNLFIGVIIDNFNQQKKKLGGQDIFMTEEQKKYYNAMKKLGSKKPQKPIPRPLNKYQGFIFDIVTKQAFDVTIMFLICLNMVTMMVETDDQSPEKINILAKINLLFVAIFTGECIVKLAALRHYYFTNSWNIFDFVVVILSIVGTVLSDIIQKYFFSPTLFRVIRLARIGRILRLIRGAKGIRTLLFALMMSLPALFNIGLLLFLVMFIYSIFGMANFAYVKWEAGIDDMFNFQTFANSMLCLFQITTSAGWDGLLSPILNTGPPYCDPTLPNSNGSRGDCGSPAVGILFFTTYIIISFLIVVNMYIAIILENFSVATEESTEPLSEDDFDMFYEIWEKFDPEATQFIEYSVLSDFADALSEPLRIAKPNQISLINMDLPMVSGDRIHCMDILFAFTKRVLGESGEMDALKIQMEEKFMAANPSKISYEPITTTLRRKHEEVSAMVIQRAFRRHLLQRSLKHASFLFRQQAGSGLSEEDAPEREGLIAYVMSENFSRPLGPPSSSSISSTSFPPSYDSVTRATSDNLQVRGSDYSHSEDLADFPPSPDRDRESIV

Structure (SMILES) | hTRPV1-N1E Nav 0.1 mM (% inhibition) 25° C. [1] [%] | hTRPV1-N1E Nav 0.1 mM (% inhibition) 47° C. [1] | hTRPV1-N1E Nav 1 mM (% inhibition) 25° C. [1] | hTRPV1-N1E Nav 1 mM (% inhibition) 47° C. [1] | IC50 [1] [µM] | Average Time of Analgesia [2, 4] [h] | duration of anti-nociception effect [2] | Average Time of Analgesia ([2]; test compound 0.25%, lidocaine 0%, total injection 200 μL) [h] | Average Time of Analgesia ([2]; test compound 0.25%, lidocaine 1%, total injection 200 μL) [h] | Average Time of Analgesia ([2]; test compound 0.5%, lidocaine 0%, total injection 200 μL) [h] | Average Time of Analgesia ([2]; test compound 0.5%, lidocaine 2%, total injection 200 μL) [h] | hTRPV1-N1E Nav (% inhibition) 25° C., tested at 0.5 mM [1] [%] | hTRPV1-N1E Nav (% inhibition) 47° C., tested at 0.5 mM [1] | IC50 [3] [µM] | inhibition at 10 min, 0.5 mM [3] [%] | inhibition at 10 min, 1.5 mM [3] [%]
C[N+]1(C)CCCCC1CCN(c1ccccc1F)C1Cc2ccccc2C1.[I-] (stereo not drawn) [Example 4, 1,1-dimethyl-2-[2-((2-fluorophenyl)(indan-2-yl)amino)ethyl]piperidinium iodide] | 0 | 94.7 (N = 3) % | 0 (N = 3) % | 67.0 (N = 3) % | 10 to 100 | 1 | – | – | – | – | – | – | – | – | – | –
Cc1ccccc1N(CCC1CCCC[N+]1(C)C)C1Cc2ccccc2C1.[I-] (stereo not drawn) [Example 24, 1,1-dimethyl-2-[2-((indan-2-yl)(2-methylphenyl)amino)ethyl]piperidinium iodide] | 25.1 | 88.5 (N = 2) % | 57.9 (N = 2) % | 84.2 (N = 2) % | 1 to 10 | 32 | up to 32 hours | 4 | 24 | 12 | >168 | – | – | – | – | –
CC[N+]1(CC)CCCCC1CCN(c1ccc(C)cc1)C1Cc2ccccc2C1.[I-] (stereo not drawn) [Example 23, 1,1-Diethyl-2-[2-((indan-2-yl)(4-methylphenyl)amino)ethyl]piperidinium iodide] | 19.7 | 89.6 (N = 2) % | Insoluble | Insoluble | 1 to 10 | 2 | – | – | – | – | – | – | – | – | – | –
C[N+]1(C)CCCC[C@H]1CCN(c1ccccc1)C1Cc2ccccc2C1.[I-] [Example 9, (S)-1,1-Dimethyl-2-[2-((indan-2-yl)(phenyl)amino)ethyl]piperidinium iodide] | – | – | – | – | 10 to 100 | 5 | – | – | – | – | – | 16 | 77 (N = 2, 0.5 mM) % | 647 | 72.4 | 97.2
C[N+]1(C)CCCC[C@@H]1CCN(c1ccccc1)C1Cc2ccccc2C1.[I-] [Example 10, (R)-1,1-Dimethyl-2-[2-((indan-2-yl)(phenyl)amino)ethyl]piperidinium iodide] | – | – | 6.5 (N = 2) % | – | 10 to 100 | – | – | – | – | – | – | 24 | 91 (N = 2, 0.5 mM) % | 667 | 76.1 | 97.6
CC[N+]1(CC)CCCCC1CCN(c1ccccc1F)C1Cc2ccccc2C1.[I-] (stereo not drawn) [Example 16, 1,1-Diethyl-2-[2-((2-fluorophenyl)(indan-2-yl)amino)ethyl]piperidinium iodide] | 0 | 92.9 (N = 2) % | Insoluble | Insoluble | 10 to 100 | 6 | up to 6 hours | – | – | – | – | – | – | – | – | –
CC[N+]1(CC)CCCCC1CCN(c1cccc(F)c1)C1Cc2ccccc2C1.[I-] (stereo not drawn) [Example 17, 1,1-diethyl-2-[2-((3-fluorophenyl)(indan-2-yl)amino)ethyl]piperidinium iodide] | 1 | 86.1 (N = 3) % | 6.1 (N = 3) % | 28.9 (N = 3) % | 10 to 100 | – | – | – | – | – | – | – | – | – | – | –
C[N+]1(C)CCCCC1CCN(c1ccc2c(c1)OCCO2)C1Cc2ccccc2C1.[I-] (stereo not drawn) [Example 42, 1,1-dimethyl-2-[2-((2,3-dihydrobenzo[b][1,4]dioxin-6-yl)(indan-2-yl)amino)ethyl]piperidinium iodide] | 0 | 64.9 (N = 2) % | – | – | – | – | – | – | – | – | – | – | – | – | – | –
